Converted amounts (≈) assume the structure as drawn. Like-named read-outs stand apart in the source and are kept apart here.

In data set [1] the test system is Aspergillus fumigatus (ATCC MYA-4609/AF293/CBS 101355). Nature of the data set: Measurement of minimum inhibitory concentration (MIC), AF293. In kind it is cell-based. The procedure:
New streaks are made with glycerol stock solution of the strains of Aspergillus fumigatus (ATCC MYA-4609/AF 293/CBS 101355) on Sabouraud's dextrose agar (SDA), incubate at 35° C. and a humidity of 40-70% for 72 hours. Other strains are processed as the same as AF293.
RPMI1640: one packet of RPMI1640 powder is dissolved in 1 L purified water and mixed well, add 0.165M MOPS, adjust the pH to 7.0, sterilize by filtration with 0.22 um membrane, and store at 4° C. for no more than 3 months.
Physiological saline: weigh 9 g of sodium chloride powder and dissolve in 1 L of purified water, and mixed well. Sterilize at 121° C. for 30 min, store at room temperature (RT) for no more than 1 week.
Dissolve the test compound and stock solution of one control compound with DMSO and obtain solutions at a concentration of 12.8 mg/mL
The maximum concentration of each compound is 0.8 mg/mL (e.g., 150 μL of dimethyl sulfoxide+10 uL of 12.8 mg/mL compound/control). Column 1 is filled with 40 μL of compound and columns 2 to 11 with 20 μL of dimethyl sulfoxide. Transfer 20 μL of compound from column 1 to column 2 to dilute the concentration. Repeat the above steps up to column 11 to give 2× serial dilutions.
2 μL of the above 2× serial dilutions are injected into each hole of the corresponding test plate using a multichannel pipette.
Drop 5 ml of saline on the Aspergillus fumigatus SDA plate. The spores were carefully wiped off from the surface of the plate with an L-shaped coating rod. Then the suspension is transferred into a sterile tube. After shaking, let the tube stand for 5 to 10 minutes. Count the number of spores in the upper suspension with a hemocytometer and check the purity. Adjust the inoculum concentration to 0.2-2.5×10^4 spores/mL.
Inject 198 μL of diluted inoculum into each holes of the corresponding test plate using a multichannel pipette.
Incubate at 35° C. for 48 hours.
To facilitate scoring of the presence or absence of growth on the wall, a magnifying glass is used. The tested 96-well microplates were photographed and the optical density at 530 nm is read with an enzyme marker (Tecan Spark).

Data set [2] is described as follows: Liver microsomal stability test, human. The class given is in vitro ADME. The conditions noted are these: Human liver microsomes. The protocol:
(§1) • 1: Add 10 μL of working solutions of test product or reference product and 80 μL of microsomal working solution (liver microsomal protein concentration of 0.5 mg/mL) to wells of TO, T5, T10, T20, T30, T60, and NCF60, and only microsomal working solution is added to the Blank60 wells. Then the samples of Blank60, T10, T20, T30 and T60, except for TO and NCF60, are placed in a water bath set at 37° C. and incubate for approximately 10 mins; • 2: Add 300 μL of termination solution (acetonitrile solution containing 200 ng/mL tolbutamide and 200 ng/mL labetalol) to Sample TO, followed by 10 ul of NADPH regeneration system working solution; • 3: After incubation of Blank60, T5, T10, T20, T30 and T60 on incubation plates, add 10 μL of NADPH regeneration system working solution to each sample well to start the reaction, and 10 uL of 100 mM potassium phosphate buffer is add to the NCF60 sample wells; • 4: After incubation for appropriate times (e.g., 5, 10, 20, 30 and 60 mins), 300 μL of termination solution is add to each sample well of test product and reference product on Blank60, T5, T10, T20, T30, T60 and NCF60 plates, respectively, to terminate the reaction. • 5: All sample plates are shaken well and centrifuged at 4000 rpm for 20 min, take 100 μL of the supernatant of the test product or reference product, dilute in 300 μL of pure water for LC-MS/MS analysis, respectively. • 6: Data analysis, T½ and CLint(mic) (μL/min/mg) values are calculated based on the first-order elimination kinetics, and the equations of first-order elimination kinetics are: […]
A general note: Microsomes from liver hold many membrane-bound enzymes, among them those of drug oxidation.

The nature of data set [3]: Liver microsomal stability test, mouse. The class given is in vitro ADME. The conditions noted are these: Mouse liver microsomes. The procedure:
as §1

Where [4] appears, read: CBS101355, Aspergillus fumigatus AF293, 35° C., 48 hours, RPMI1640, read-out: AF293: MIC.
[5] abbreviates: Aspergillus fumigatus AF293, 35° C., 48 hours, RPMI1640.
The mark [6] stands for this setting: 0.5 mg/mL protein, 37° C., NADPH.

As to `Cc1cc(-c2cccc(F)c2)c(C(=O)C(=O)Nc2ccc3c(c2)OC[C@H]2CN(c4ncc(F)cn4)CCN32)n1C` [Example 36, (R)-2-(3-(3-fluorophenyl)-1,5-dimethyl-1H-pyrrol-2-yl)-N-(3-(5-fluoropyrimidin-2-yl)-1,2,3,4,4a,5-hexahydrobenzo[b]pyrazino[1,2-d] [1,4]oxazin-8-yl)-2-oxoacetamide], the MIC – broadly, the least concentration at which growth counts as inhibited – in data set [1] (setting [4]) was found to be 0.016 µg/mL (≈ 0.0294 µM).
Take `COc1cnc(N2CCN3c4ccc(NC(=O)C(=O)c5c(-c6ccccc6)cc(C)n5C)cc4OCC3C2)nc1` (stereo not shown) [Example 8]: the MIC in data set [1] (setting [4]) was determined as 0.03 µg/mL (≈ 0.0557 µM).
Regarding `Cc1cc(-c2ccccc2)c(C(=O)C(=O)Nc2ccc3c(c2)OC[C@H]2CN(c4ncncn4)CCN32)n1C` [Example 28, (R)—N-(3-(1,3,5-triazin-2-yl)-1,2,3,4,4a,5-hexahydrobenzo[b]pyrazino[1,2-d] [1,4]oxazin-8-yl)-2-(1,5-dimethyl-3-phenyl-1H-pyrrol-2-yl)-2-oxoacetamide], the MIC in data set [1] (setting [4]) came to 0.25 µg/mL (≈ 0.491 µM).
With `Cc1cc(-c2ccccc2)c(C(=O)C(=O)Nc2ccc3c(c2)COCC2CN(c4ncc(F)cn4)CCN32)n1C` (stereo not shown) [Example 18, 2-(1,5-dimethyl-3-phenyl-1H-pyrrol-2-yl)-N-(3-(5-fluoropyrimidin-2-yl)-1,2,3,4,4a,5-hexahydro-7H-benzo[e]pyrazino[2,1-c] [1,4]oxazolin-9-yl)-2-oxoacetamide], the “AF293: MIC” value in data set [1] (setting [5]) is 0.03 µg/mL.
As for `Cc1cc(-c2ccccc2)c(C(=O)C(=O)Nc2ccc3c(c2)OCC2CN(c4ncc(C#N)s4)CCN32)n1C` (stereo not shown) [Example 12], the MIC in data set [1] (setting [4]) amounted to 0.13 µg/mL (≈ 0.241 µM).
On the same count and under the same terms, in the case of `Cc1cc(-c2ccccc2)c(C(=O)C(=O)Nc2ccc3c(c2)OCC2CN(c4ccnc(Cl)n4)CCN32)n1C` (stereo not shown) [Example 11] it was 0.5 µg/mL (≈ 0.921 µM).
In the case of `Cc1cc(-c2ccccc2)c(C(=O)C(=O)Nc2ccc3c(c2)OCC2CN(c4ccc(F)nn4)CCN32)n1C` (stereo not shown) [Example 13], in data set [1] (setting [4]), the MIC was determined as 0.25 µg/mL (≈ 0.475 µM).
For `Cc1cc(-c2ccccc2)c(C(=O)C(=O)Nc2ccc3c(c2)COC[C@@H]2CN(c4ncc(F)cn4)CCN32)n1C` [Example 27], the MIC in data set [1] (setting [4]) came out at 0.03 µg/mL (≈ 0.0555 µM).
For the molecule `Cc1cc(-c2ccccc2)c(C(=O)C(=O)Nc2ccc3c(c2)OCC2CN(c4ncn(C)n4)CCN32)n1C` (stereo not shown) [Example 17], the “AF293: MIC” value in data set [1] (setting [5]) was determined as 1 µg/mL.
Turning to `Cc1cc(-c2ccccc2)c(C(=O)C(=O)Nc2ccc3c(c2)OCC2CN(c4ccc(F)cn4)CCN32)n1C` (stereo not shown) [Example 14], in data set [1] (setting [4]), the MIC was 0.06 µg/mL (≈ 0.114 µM).
Same read-out and setting: in the case of `Cc1cc(-c2ccccc2)c(C(=O)C(=O)Nc2ccc3c(c2)COC[C@H]2CN(c4ncc(F)cn4)CCN32)n1C` [Example 26] it was 0.03 µg/mL (≈ 0.0555 µM).
For the molecule `Cc1cc(-c2ccccc2)c(C(=O)C(=O)Nc2cc(F)c3c(c2)OC[C@H]2CN(c4ncc(F)cn4)CCN32)n1C` [Example 25, (R)-2-(1,5-dimethyl-3-phenyl-1H-pyrrol-2-yl)-N-(10-fluoro-3-(5-fluoropyrimidin-2-yl)-1,2,3,4,4a,5-hexahydrobenzo[b]pyrazino[1,2-d] [1,4]oxazin-8-yl)-2-oxoacetamide], in data set [1] (Aspergillus fumigatus, CBS101355, 48 h, read-out: AF293: MIC, Aspergillus fumigatus AF293, 35° C., 48 hours, RPMI1640), the MIC came out at 0.06 µg/mL (≈ 0.11 µM).
`Cc1cc(-c2ccccc2)c(C(=O)C(=O)Nc2ccc3c(c2)OCC2CN(c4ncc(C#N)cn4)CCN32)n1C` (stereo not shown) [Example 7, N-(3-(5-cyanopyrimidin-2-yl)-1,2,3,4,4a,5-hexahydrobenzo[b]pyrazino[1,2-d] [1,4]oxazin-8-yl)-2-(1,5-dimethyl-3-phenyl-1H-pyrrol-2-yl)-2-oxyacetamide]: the “AF293: MIC” value in data set [1] (setting [5]) turned out to be 0.06 µg/mL.
`Cc1cc(-c2ccccc2)c(C(=O)C(=O)Nc2ccc3c(c2)OCC2CN(c4nccc(Cl)n4)CCN32)n1C` (stereo not shown) [Example 10]: in data set [1] (setting [4]), the MIC was found to be 0.06 µg/mL (≈ 0.11 µM).
Still for that read-out and setting: in the case of `Cc1cc(-c2ccccc2)c(C(=O)C(=O)Nc2ccc3c(c2)OC[C@H]2CN(c4ncc(N5CCC5)cn4)CCN32)n1C` [Example 23, (R)—N-(3-(5-(azetidin-1-yl)pyrimidin-2-yl)-1,2,3,4,4a,5-hexahydrobenzo[b]pyrazino[1,2-d] [1,4]oxazin-8-yl)-2-(1,5-dimethyl-3-phenyl-1H-pyrrol-2-yl)-2-oxoacetamide] it was 0.13 µg/mL (≈ 0.231 µM).
On to `Cc1cc(-c2ccccc2)c(C(=O)C(=O)Nc2ccc3c(c2)CN(C)CC2CN(c4ncc(F)cn4)CCN32)n1C` (stereo not shown) [Example 31], for which the “AF293: MIC” value in data set [1] (setting [5]) worked out at 1 µg/mL.
As for `Cc1cc(-c2ccc(F)cc2)c(C(=O)C(=O)Nc2ccc3c(c2)OC[C@H]2CN(c4ncc(F)cn4)CCN32)n1C` [Example 37, (R)-2-(3-(4-fluorophenyl)-1,5-dimethyl-1H-pyrrol-2-yl)-N-(3-(5-fluoropyrimidin-2-yl)-1,2,3,4,4a,5-hexahydrobenzo[b]pyrazino[1,2-d] [1,4]oxazin-8-yl)-2-oxoacetamide], in data set [1] (setting [4]), the MIC amounted to 0.016 µg/mL (≈ 0.0294 µM).
On to `Cc1cc(-c2ccccc2)c(C(=O)C(=O)Nc2ccc3c(c2)CC2CN(c4ncc(F)cn4)CCCN32)n1C` (stereo not shown) [2 (T-2-a), 2-(1,5-dimethyl-3-phenyl-1H-pyrrol-2-yl)-N-(2-(5-fluoropyrimidin-2-yl)-2,3,4,5,11,11a-hexahydro-1H-[1,4]diaza[1,2-a]indol-9-yl)-2-oxoacetamide], for which the “AF293: MIC” value in data set [1] (setting [5]) stood at 0.06 µg/mL.
As for `Cc1cc(-c2ccccc2)c(C(=O)C(=O)Nc2ccc3c(c2)OC[C@H]2CN(c4ncc(N5CCOCC5)cn4)CCN32)n1C` [Example 24, (R)-2-(1,5-dimethyl-3-phenyl-1H-pyrrol-2-yl)-N-(3-(5-morpholinopyrimidin-2-yl)-1,2,3,4,4a,5-hexahydrobenzo[b]pyrazino[1,2-d] [1,4]oxazin-8-yl)-2-oxoacetamide], in data set [1] (setting [4]), the MIC was determined as 0.13 µg/mL (≈ 0.219 µM).
Same read-out and setting: the same measure for `Cc1cc(-c2ccccc2)c(C(=O)C(=O)Nc2cnc3c(c2)OCC2CN(c4ncc(F)cn4)CCN32)n1C` (stereo not shown) [Example 22, 2-(1,5-dimethyl-3-phenyl-1H-pyrrol-2-yl)-N-(8-(5-fluoropyrimidin-2-yl)-6,6a,7,8,9,10-hexahydropyrazino[1,2-d]pyrido[3,2-b] [1,4]oxazin-3-yl)-2-oxoacetamide]: 0.13 µg/mL (≈ 0.246 µM).
On to `Cc1cc(-c2ccccc2)c(C(=O)C(=O)Nc2ccc3c(c2)OCC2CN(c4ncc(C(F)(F)F)cn4)CCN32)n1C` (stereo not shown) [Example 9], for which the CLint scaled (in general, a measure of how fast metabolising enzymes remove a compound, apart from limits set by blood flow) in data set [2] (setting [6]) is 52.9 mL/min/kg; in data set [3] (setting [6]), 81.1 mL/min/kg. Further, the values for the half-life in data set [2] (setting [6]) and in data set [3] (setting [6]) were 23.6 min and 30.7 min, respectively. Besides, the “Remaining, (T = 60 min)” value in data set [2] (60 min) came out at 16.5%; in data set [3] (60 min), 24.0%. Besides, the MIC in data set [1] (setting [4]) was found to be 0.06 µg/mL (≈ 0.104 µM).
Turning to `Cc1cc(-c2ccccc2)c(C(=O)C(=O)Nc2ccc3c(c2)CC2CCN(c4ncc(F)cn4)CCN32)n1C` (stereo not shown) [2 (T-2-b), 2-(1,5-dimethyl-3-phenyl-1H-pyrrol-2-yl)-N-(3-(5-fluoropyrimidin-2-yl)-2,3,4,5,11,11a-hexahydro-1H-[1,4]diaza[1,7-a]indol-9-yl)-2-oxoacetamide], the “AF293: MIC” value in data set [1] (setting [5]) was found to be 0.06 µg/mL.
